# From US20260199564A1, “METHOD OF PREVENTING BLOOD COAGULATION AND DRUG-ELUTING IMPLANT FOR PERCUTANEOUS CORONARY INTERVENTION” (priority 2023, published 2026)
# Assays:
# [1] = molecular target: T1, CYP3A4 (Homo sapiens, UniProt P08684); test: Cytochrome P450 inhibition in human liver microsomes using LC-MS/MS, CYP3A4; type: in vitro ADME; settings: for IC50 shift (fold difference): ratio of IC50 with −NADPH to IC50 with +NADPH in the 30 min pre-incubation; for IC50: pooled human liver microsomes
# T1 construct: with pooled human liver microsomes; from tissue; host or cells: pooled human liver microsomes
# Description: (§1) In IC50 shift experiments, CK (0.2 μL prepared in DMSO) was pre-incubated for 30 min at 37° C., at 8 different concentrations, with pooled human liver microsomes (0.1-1 mg/mL, depending on which enzyme was assessed) in the absence or presence of 1 mM NADPH in 100 μL of potassium phosphate buffer (100 mM, pH 7.4) and MgCl2 (2.5 mM). After the pre-incubation, a substrate mixture containing a probe substrate in 100 μL of potassium phosphate buffer (100 mM, pH 7.4), MgCl2 (2.5 mM), and NADPH (1 mM) was added for measurement of the corresponding P450 activities. Incubations were terminated by addition of 200 μL methanol. Samples were then extracted and centrifuged and the supernatant was subjected to validated LC-MS/MS analysis.
# [2] = molecular target: T2, hERG channel (Homo sapiens, UniProt Q12809); test: Predictor hERG fluorescence polarization (FP) binding assay
# T2 construct: purchased
# Description: • a. Primary stock solutions of 3 mM CK and astemizole in 100% DMSO were diluted in 3-fold serial dilutions in the same solvent to obtain 16 different concentrations ranging from 3 mM to […]. These solutions were further diluted 25-fold with FP (fluorescence polarization) assay buffer and then transferred to the assay plate. • b. Each test solution in the assay plate was further diluted 4-fold with FP assay buffer. Predictor™ hERG membrane preparations were thawed at room temperature and sonicated. Predictor™ hERG Tracer Red (250 nM) was diluted to 4 nM with hERG FP assay buffer. All experiments were performed in FP assay buffer containing […].
# • a. The FP assay was carried out using Predictor™ hERG Fluorescence Polarization Assay Kit. The binding assay was conducted following the manufacturer's recommended protocol with some modifications. Aliquots (5 μL) of each concentration of test article of reference were pipetted into the appropriate wells of a black 384-well micro-plate containing 10 μL of hERG membrane and 5 μL of 4 nM fluorescent tracer and covered with plate lid to protect the reagents exposed to from light. • b. The experiments were performed using triplicate wells for each concentration. Following a 3-hour incubation at room temperature, the microplates were read on a Tecan Infinite® F200 plate reader using polarized excitation filter setting at 535 nm and emission filter setting at 590 nm (25 and 20 nm bandwidths, respectively). Assay robustness was assessed by measuring 16 replicates positive control wells (containing 30 μM E-4031, known hERG channel blocker, in FP assay mixture) and negative control wells (no hERG channel blocker in FP assay mixture).
# • a. To evaluate the robustness of the hERG assays, the signal-to-noise ratio was quantified by calculating Z′-factor for each assay. In statistics, the Z′-factor provides a way to evaluate the quality of the assay. […]. Z′-factor values were determined using the blank subtracted polarization values from 16 wells of • negative and positive controls using the formula of Zhang et al. […]
# [3] = molecular target: T3, CYP2B6 (Homo sapiens, UniProt P20813); test: Cytochrome P450 inhibition in human liver microsomes using LC-MS/MS, CYP2B6; type: in vitro ADME
# T3 construct: with pooled human liver microsomes; from tissue; host or cells: pooled human liver microsomes
# T3 sequence (P20813 1-491): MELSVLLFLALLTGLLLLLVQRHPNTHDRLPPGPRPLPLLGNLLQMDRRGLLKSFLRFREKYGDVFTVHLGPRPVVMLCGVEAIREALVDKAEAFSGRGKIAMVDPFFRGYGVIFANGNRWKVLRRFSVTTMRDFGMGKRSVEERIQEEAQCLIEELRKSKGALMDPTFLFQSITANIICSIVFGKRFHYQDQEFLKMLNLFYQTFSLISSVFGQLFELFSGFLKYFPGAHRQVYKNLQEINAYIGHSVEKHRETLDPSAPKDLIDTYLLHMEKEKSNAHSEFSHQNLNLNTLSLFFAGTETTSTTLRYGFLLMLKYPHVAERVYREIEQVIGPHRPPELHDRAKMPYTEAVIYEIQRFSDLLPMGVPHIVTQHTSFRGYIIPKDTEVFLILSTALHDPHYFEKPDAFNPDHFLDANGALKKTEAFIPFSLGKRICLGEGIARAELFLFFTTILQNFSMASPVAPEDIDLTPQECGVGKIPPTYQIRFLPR
# Description: as §1
# T1 sequence (P08684 whole entry): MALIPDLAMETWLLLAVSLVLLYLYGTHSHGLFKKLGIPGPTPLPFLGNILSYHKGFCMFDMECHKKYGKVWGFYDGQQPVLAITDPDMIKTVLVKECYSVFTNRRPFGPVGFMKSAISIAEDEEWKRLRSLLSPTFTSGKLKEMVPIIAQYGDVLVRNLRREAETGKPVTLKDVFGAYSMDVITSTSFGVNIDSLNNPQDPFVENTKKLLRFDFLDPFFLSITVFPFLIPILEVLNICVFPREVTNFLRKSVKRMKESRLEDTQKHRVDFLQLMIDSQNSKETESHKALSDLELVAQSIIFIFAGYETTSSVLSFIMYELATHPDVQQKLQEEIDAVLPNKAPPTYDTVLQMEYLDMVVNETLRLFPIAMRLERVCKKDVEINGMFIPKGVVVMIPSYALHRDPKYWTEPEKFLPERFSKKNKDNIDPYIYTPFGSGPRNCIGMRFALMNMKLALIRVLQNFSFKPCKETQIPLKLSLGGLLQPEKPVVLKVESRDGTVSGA
# T2 sequence (Q12809 whole entry): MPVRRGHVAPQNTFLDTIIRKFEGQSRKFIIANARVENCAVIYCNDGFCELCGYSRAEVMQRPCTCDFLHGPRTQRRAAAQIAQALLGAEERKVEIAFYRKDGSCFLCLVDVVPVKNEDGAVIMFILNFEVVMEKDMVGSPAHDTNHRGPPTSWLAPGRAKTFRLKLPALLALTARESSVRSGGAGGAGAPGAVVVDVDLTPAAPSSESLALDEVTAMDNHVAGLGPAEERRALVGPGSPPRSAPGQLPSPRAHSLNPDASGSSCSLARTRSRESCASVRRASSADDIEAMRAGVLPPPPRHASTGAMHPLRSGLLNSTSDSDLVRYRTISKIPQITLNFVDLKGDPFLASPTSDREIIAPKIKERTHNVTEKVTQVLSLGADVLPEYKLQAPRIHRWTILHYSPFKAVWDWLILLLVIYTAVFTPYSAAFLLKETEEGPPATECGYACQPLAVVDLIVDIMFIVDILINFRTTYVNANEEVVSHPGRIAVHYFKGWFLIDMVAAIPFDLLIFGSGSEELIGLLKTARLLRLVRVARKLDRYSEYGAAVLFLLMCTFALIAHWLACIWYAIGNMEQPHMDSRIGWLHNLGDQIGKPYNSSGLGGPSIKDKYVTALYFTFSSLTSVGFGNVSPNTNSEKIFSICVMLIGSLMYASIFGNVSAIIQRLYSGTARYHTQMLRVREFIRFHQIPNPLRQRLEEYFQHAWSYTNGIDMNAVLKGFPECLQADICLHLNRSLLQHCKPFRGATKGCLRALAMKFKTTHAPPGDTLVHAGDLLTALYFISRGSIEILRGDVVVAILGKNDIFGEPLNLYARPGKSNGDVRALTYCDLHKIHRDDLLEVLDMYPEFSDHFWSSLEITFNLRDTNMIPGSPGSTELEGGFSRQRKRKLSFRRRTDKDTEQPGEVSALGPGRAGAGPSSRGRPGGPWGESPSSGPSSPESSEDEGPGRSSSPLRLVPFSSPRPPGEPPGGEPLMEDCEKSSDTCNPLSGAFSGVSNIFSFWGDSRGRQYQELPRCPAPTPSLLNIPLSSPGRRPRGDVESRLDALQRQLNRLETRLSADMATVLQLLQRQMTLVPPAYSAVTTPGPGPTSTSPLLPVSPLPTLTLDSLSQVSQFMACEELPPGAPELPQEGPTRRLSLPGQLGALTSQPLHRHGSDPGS
smiles,measurement,setting,value
"CC(C)=CCC[C@](C)(O[C@@H]1O[C@H](CO)[C@@H](O)[C@H](O)[C@H]1O)[C@H]1CC[C@]2(C)[C@@H]1[C@H](O)C[C@@H]1[C@@]3(C)CC[C@H](O)C(C)(C)[C@@H]3CC[C@]12C [CK, Ginsenoside compound K]",IC50 shift (fold difference),"[1]; CYP3A4(M), midazolam as substrate",0.98 fold
same,IC50 shift (fold difference),"[1]; CYP3A4(T), testosterone as substrate",1.06 fold
same,IC50,[1]; substrate Midazolam,9.76 µM
same,IC50,[1]; substrate Testosterone,13.9 µM
same,blocking effect for binding of tracer to the hERG membrane protein,"[2]; at 30 μM, triplicate measurements",minor blocking effect
same,risk classification of potency for hERG blocker,[2]; classified from IC50,weak ligand
same,IC50,"[2]; hERG FP assay, triplicate measurements",> 30 µM
same,IC50,"[3]; pooled human liver microsomes, substrate Bupropion",14.8 µM
same,IC50 shift (fold difference),[3]; ratio of IC50 with −NADPH to IC50 with +NADPH in the 30 min pre-incubation,1.08 fold
